Laboratory results from patent US20100041597A1, “PEPTIDES TARGETED TO PROTEIN KINASE C ISOFORMS AND USES THEREOF” (priority 2005, published 2010).
Each block holds one substance with its values, some of them ahead of it.

Biological target: T1, PKC-ζ (Homo sapiens, UniProt Q05513)
T1 sequence (Q05513 1-592): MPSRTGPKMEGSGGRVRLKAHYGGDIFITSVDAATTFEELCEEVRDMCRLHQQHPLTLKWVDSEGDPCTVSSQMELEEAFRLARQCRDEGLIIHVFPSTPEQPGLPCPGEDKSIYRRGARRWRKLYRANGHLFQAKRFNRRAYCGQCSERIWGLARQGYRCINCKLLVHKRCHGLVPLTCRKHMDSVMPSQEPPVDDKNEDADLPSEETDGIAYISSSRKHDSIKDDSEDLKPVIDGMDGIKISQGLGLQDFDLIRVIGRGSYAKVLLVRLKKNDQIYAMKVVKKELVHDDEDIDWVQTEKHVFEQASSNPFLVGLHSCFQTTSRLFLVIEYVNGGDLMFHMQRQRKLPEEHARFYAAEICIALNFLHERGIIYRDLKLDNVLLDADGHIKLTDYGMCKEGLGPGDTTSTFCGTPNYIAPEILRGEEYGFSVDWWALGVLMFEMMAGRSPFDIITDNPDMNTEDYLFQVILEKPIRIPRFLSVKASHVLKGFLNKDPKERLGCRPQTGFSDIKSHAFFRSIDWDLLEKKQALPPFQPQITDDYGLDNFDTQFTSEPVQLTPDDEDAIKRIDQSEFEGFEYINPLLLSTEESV
Assay: ELISA-based competitive binding assay with purified PKC isoform
Design: key to Affinity for PKC isoform ζ: —: no detectable affinity; Low to very low affinity at 10X or 20X or both PRE concentrations in at least one cell line in the cell extract assay; Low affinity in purified isoform assay.; Moderate affinity at 10X or 20X or both PRE concentrations in at least one cell line in the cell extract assay.; High affinity at 10X or 20X or both PRE concentrations in at least one cell line in the cell extract assay; High affinity in purified isoform assay
Conditions: for inhibition at 50 µM / inhibition at 100 µM / inhibition at 200 µM / calculated binding capacity (100-% n) after subtraction of the DMSO apparent binding capacity: purified PKC-ζ; for inhibition at 50 µM / inhibition at 100 µM / inhibition at 200 µM: read-out: calculated binding capacity (100-% n) after subtraction of the DMSO apparent binding capacity; for Affinity for PKC isoform ζ: Purified isoform, Table 20
Method: Peptides PRE 1, 2, 3, 4, 5, 6, 7, 8, 9, 10, 11, 12 and 13 (see Table 3) were tested for their ability to interfere with binding of PKC isoform-specific antibodies to their target PKC isoforms using a competitive binding assay and purified PKC isoforms.
Procedure: Competitive binding was assessed using a 96 well plate ELISA-based assay as described below.
Greiner 96 well ELISA plates were coated with the appropriate PKC isoform diluted in PBSN (PBS with Calcium/Magnesium+0.05% Sodium azide w/w). 50 μL/well at 250 ng/mL was used. Control wells contained PBSN only. Plates were incubated overnight at 4° C.
The plates were washed 3 times with 200 μL of dH2O per well, then 100 μL of blocking solution was added per well and the plate incubated for 1 h at 37° C. The washing steps with dH2O were repeated and 50 μL of the appropriate PRE solution (PRE stock solution [20 mM in DMSO] diluted in PBSN) was added and the plate incubated for 1 h at room temperature.
After incubation, 5 μL of 1.1:400 anti-PKC (isoform specific antibody) was added per well (to provide a final concentration of 1:4000). For PKC-epsilon, 1.1:800 dilution was used and for PKC-zeta a 1.1:100 dilution was used due to high and low binding affinity, respectively. The plates were then incubated 1 h at room temperature, followed by washing with dH2O as described above.
50 μL of 1:1000 dilution of Alkaline Phosphatase (AP) conjugated antibody (anti-rabbit for all except zeta, which was anti-goat) was then added and the plate incubated for 1 h at room temperature. Washing with dH2O was then repeated. Finally, 100 μL of pNPP solution in pNPP buffer (2 mM MgCl2, 100 mM Sodium bicarbonate in water, pH 9.8) was added to all wells and incubated for 8 minutes for α, βI, βII ε, and ζ, or for 15-20 mins for […] (until sufficient coloration is observed). The reaction was stopped by addition of Stop solution (2N NaOH) and the absorbance at 405 nm was read on a Galaxy Plate reader.
Controls were PKC without PRE; blank controls, and controls containing the final concentrations of DMSO used for solubilizing the PREs. The non-specific binding capacity related to DMSO was also measured.
The antibodies used were as follows: anti-PKC α (Cat. No. SC-208); anti-PKC βI (Cat. No. SC-209); anti-PKC βII (Cat. No. SC-210); anti-PKC δ (Cat. No. SC-213); anti-PKC ε (Cat. No. SC-214); anti-PKC ζ (Cat. No. SC-216-G) (all from Santa Cruz Biotechnology, Inc.). The AP-conjugated antibodies were obtained from Jackson Immuno Research Laboratories (West Grove, Pa.).
Calculations: The OD values measured at 405 nm represent the free PKC coated per well.
OD405 PKC alone−Blank OD405 of each sample=OD405 coated isoform
(OD405 of sample X/OD405 coated isoform)×100=% n that represents the percentage of X binding compared to control.
100-% n measures the relative binding capacity of X towards the tested isoform.
The apparent binding capacity of the DMSO samples was then subtracted from X binding capacity.
All measurements were made in triplicate and the values in the table represent the averaged calculated binding capacity values after subtraction of the DMSO apparent binding capacity (averaged from 12 values, respectively 10.80, 11.20 and 16.40 corresponding to the concentrations of DMSO used to dilute the […] at 200, 100 and 50 μM respectively). The results allow for quantitative comparison of the binding capacity of each PRE towards an individual isoform within each table, but not among isoforms due to differences in sensitivity of the specific antibodies toward the secondary antibody. This applies particularly to PKC-delta. As noted above, the colour development duration was increased 2-3 times and, as a result, the OD405 measurements may be overestimated for this isoform.

- inhibition at 50 µM (PRE 50 μM): 14%
- inhibition at 100 µM (PRE 100 μM): 23.9%
- inhibition at 200 µM (PRE 200 μM): 29.1%
- Affinity for PKC isoform ζ: H
- targeting of PKC-ζ (purified isoform, Tables 14-19): targeted by PRE 3 only
Substance: Ac-AKGIQEVKGGDAQNLIGISI-NH2 [PRE 3]

- inhibition at 50 µM (PRE 50 μM): 0%
- inhibition at 100 µM (PRE 100 μM): 0%
- inhibition at 200 µM (PRE 200 μM): 0%
- Affinity for PKC isoform ζ: —
Substance: Ac-AKGIQEVKGGKDAQNLIGISI-NH2 [PRE 5]

- Affinity for PKC isoform ζ: —
Substance: Ac-ISIGILNQADK-NH2 [PRE 10]

- Affinity for PKC isoform ζ: —
Substance: Ac-ISIGILQNADK-NH2 [PRE 7]

- Affinity for PKC isoform ζ: —
Substance: Ac-KDANQLIGISI-NH2 [PRE 6]

- calculated binding capacity (100-% n) after subtraction of the DMSO apparent binding capacity (PRE 50 μM): 4.20
- calculated binding capacity (100-% n) after subtraction of the DMSO apparent binding capacity (PRE 100 μM): 8.77
- calculated binding capacity (100-% n) after subtraction of the DMSO apparent binding capacity (PRE 200 μM): 0.33
- Affinity for PKC isoform ζ: —
Substance: Ac-KDAQNLI-NH2 [PRE 12]

- inhibition at 50 µM (PRE 50 μM): 0%
- inhibition at 100 µM (PRE 100 μM): 0%
- inhibition at 200 µM (PRE 200 μM): 5.85%
- Affinity for PKC isoform ζ: —
Substance: Ac-KDAQNLIGISI-NH2 [PRE 4, Ac-KDAQNLIGISI-NH2]

- Affinity for PKC isoform ζ: —
Substance: Ac-RDAQNLI-NH2 [PRE 13]

- Affinity for PKC isoform ζ: —
Substance: Ac-RDAQNLIGISI-NH2 [PRE 11]

- Affinity for PKC isoform ζ: —
Substance: Ac-isigilgnadk-NH2 [PRE 9]

- Affinity for PKC isoform ζ: —
Substance: ILEDKGGDAQNLIGISI [PRE 8]

- calculated binding capacity (100-% n) after subtraction of the DMSO apparent binding capacity (PRE 50 μM): 4.11
- Affinity for PKC isoform ζ: —
Substance: RRKKGGKDFVVKR [PRE 1]
